Experimental data published in patent US10689595B2 (THE REGENTS OF THE UNIVERSITY OF CALIFORNIA, priority 2016, dated 2020).
Blank lines part the entries; values can stand above or below the molecule they belong to.

Experiments:
naïve rats = experiment: von Frey mechanical allodynia assay in naïve rats; format: in vivo, Sprague-Dawley rats; conditions: methyl esters, 1 μg intraplantar, FIG. 6A
Experimental: Male Sprague-Dawley rats weighing approximately 250-300 grams were obtained from Charles River Laboratories. On the day of the test, rats were brought to the testing apparatus and allowed to acclimate. The apparatus is a raised metal mesh platform with clear acrylic chambers to enclose rats but allow them to move freely. After 30 minutes the rats were tested with a von Frey aesthesiometer for their non-treated baseline withdrawal thresholds using a rigid tip on the plantar surface of the rat hind paw though the mesh floor. The scores are grams of force applied to the hind paw required to elicit a withdrawal. The pretreatment baseline score was considered the pain-free baseline (BL) and was assigned 100% for further response calculations.
For the pain assay, 20-HETE methyl ester, 20-HEPE methyl ester, or 22-HDoHE methyl ester, formulated in 10% EtOH in saline, were injected intraplantar in naïve rats. Withdrawal thresholds were measured at 15, 30, 60, 90, 120 and 150 minutes post injection. Reported scores are calculated as a percent of the pretreatment baseline score with an average of 6 rats (3 trials per rat) with SEM for the group.
The methyl esters compounds of 20-HETE, 20-HEPE and 22-HDoHE were tested for their ability to induce mechanical allodynia in vivo. For the assay, naïve rats were injected intraplantar with 1 μg of each ester and tested with an electronic von Frey aesthesiometer.

mTRPV1 = target: T1, mTRPV1 (Mus musculus, UniProt Q704Y3); experiment: calcium influx assay in HEK293 cells heterologously expressing mTRPV1; format: cell-based; conditions: for concentration that produced significant Ca2+ influx: HEK293 cells expressing mTRPV1, fluo-4, FIG. 4; for TRPV1 channel activation: at low doses
T1 construct: GFP; expressed in transfected cells; host or cells: HEK-293 (transient transfection; plasmid a gift from Jie Zheng, UC Davis)
Experimental: The mTRPV1 plasmid that contains a GFP tag was a generous gift from Professor Jie Zheng at University of California, Davis. The HEK-293 cells were cultured in a poly-D-lysine coated T75 dish at an initial density of 4×10^5 cells/dish and maintained in culture medium (DMEM+10% FBS+100 units/ml peniclillin, 0.1 mg/ml streptomycine) in an incubator at 37° C. with 5% CO2 and 95% humidity. At 50% confluence, the HEK-293 cells were transfected with 10 μg of mTRPV1 plasmid using Lipofectamine 2000 (Invitrogen Corporation, Carlsbad, Calif., USA) in antibiotic—as well as serum-free culture medium. After 6 hour incubation, the serum-free medium was replaced with normal culture medium and the cells were cultured for another 48 hours. The transfection efficiency was determined by examined the GFP expression as well as the Ca^2+ response after exposure to capsaicin.
The HEK-293 cells transiently transfected mTRPV1 were planted onto poly-D-lysine (Sigma-Aldrich, St. Louis, Mo., USA) coated black-well, clear-bottom, 96-well plates (Corning, Coring, N.Y., USA) at an initial density of 40,000/well. The cells were then cultured in DMEM medium for 18-24 hours as described previously (Ref. 38). Briefly, the growth medium was removed and replaced with dye loading buffer (100 μl/well) containing 4 μM fluo-4 and 0.5 mg/ml BSA in Locke's buffer (in mM: 8.6 HEPES, 5.6 KCl, 154 NaCl, 5.6 Glucose, 1.0 MgCl2, 2.3 CaCl2), 0.0001 glycine, pH 7.4). After 1 hour incubation in dye loading buffer, cells were washed four times in fresh Locke's buffer and transferred to the plate chamber of FLIPR^TETRA (Molecular Devices, Sunnyvale, Calif., USA). The final volume of Locke's buffer in each well was 150 μl. The cells were excited at 488 nm and Ca^2+ bound fluo-4 emission at 535 nm was recorded. Fluorescence readings were taken every 1 second for 120 s to establish the baseline. Different concentrations (4×) of compounds were added to the cells from a compound plate in a volume of 50 μl at a rate of 30 μl/s using a programmable robotic system. The fluorescence signals were recorded for an additional 380 seconds. All the experiments were performed at room temperature. The Ca^2+ data were represented as Fluo-4 fluorescence units (F/Fo). For quantifying the Ca^2+ response, the area under the curve (AUC) was used. Graphing and statistical analyses were performed using GraphPad Prism software (GraphPad Software Inc., San Diego, Calif.). Statistical significance was determined by an ANOVA and, where appropriate, a Dunnett's multiple comparison test and p values below 0.05 was considered statistically significant.
The influence of 20-HETE, 20-HEPE, and 22-HDoHe on mTRPV1 was measured in HEK293 cells heterologously expressed mTRPV1 using calcium influx assay. […] The discrepancy between previous study and current study is likely due to the fact that the mTRPV1 was used in the current study, while the hTRPV1 was used in the previous study.

ovine COX-1 = target: T2, ovine COX-1 (Ovis aries, UniProt P05979); experiment: COX Fluorescent Inhibitor Screening Assay, COX-1; format: biochemical; conditions: read-out: % inhibition at 100 μM COX-1, triplicate
T2 construct: purchased Cayman Chemical 700100
T2 sequence (P05979 25-600): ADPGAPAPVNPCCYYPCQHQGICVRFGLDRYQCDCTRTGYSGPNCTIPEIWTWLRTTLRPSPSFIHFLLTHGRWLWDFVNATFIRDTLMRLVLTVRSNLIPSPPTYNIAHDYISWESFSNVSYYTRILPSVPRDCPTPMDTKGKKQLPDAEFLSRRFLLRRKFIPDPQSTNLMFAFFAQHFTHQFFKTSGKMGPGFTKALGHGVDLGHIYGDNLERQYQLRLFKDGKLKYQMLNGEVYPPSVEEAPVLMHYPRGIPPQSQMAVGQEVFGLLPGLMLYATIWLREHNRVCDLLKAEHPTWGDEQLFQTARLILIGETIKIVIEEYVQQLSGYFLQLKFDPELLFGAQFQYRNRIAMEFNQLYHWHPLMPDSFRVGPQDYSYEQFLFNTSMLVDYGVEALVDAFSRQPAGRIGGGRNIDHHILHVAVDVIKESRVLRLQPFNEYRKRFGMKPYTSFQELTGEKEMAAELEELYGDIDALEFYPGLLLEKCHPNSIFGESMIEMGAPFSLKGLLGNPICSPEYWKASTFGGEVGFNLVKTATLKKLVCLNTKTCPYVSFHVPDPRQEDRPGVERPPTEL
Experimental: (§1) Briefly, to a series of supplied reaction buffer solutions (150 μl, 100 mM Tris-HCl, pH 8.0) with either COX-1 or COX-2 (10 μl) enzyme in the presence of Heme (10 μl) and fluorometric substrate (10 μl) were added 10 μl of 100 μM concentration of the test compound solutions. The reactions were initiated by adding 10 μl of ARA solution and then incubated for two minutes at room temperature. Percent inhibition was calculated by comparison from the 100% initial activity sample value (no inhibitor).

human COX-2 = target: T3, human COX-2 (Homo sapiens, UniProt P35354); experiment: COX Fluorescent Inhibitor Screening Assay, COX-2; format: biochemical; conditions: for inhibition at 100 µM: read-out: % inhibition at 100 μM COX-2, triplicate; for COX-2 activity changes: up to 100 μM concentrations
T3 construct: purchased Cayman Chemical 700100
T3 sequence (P35354 18-604): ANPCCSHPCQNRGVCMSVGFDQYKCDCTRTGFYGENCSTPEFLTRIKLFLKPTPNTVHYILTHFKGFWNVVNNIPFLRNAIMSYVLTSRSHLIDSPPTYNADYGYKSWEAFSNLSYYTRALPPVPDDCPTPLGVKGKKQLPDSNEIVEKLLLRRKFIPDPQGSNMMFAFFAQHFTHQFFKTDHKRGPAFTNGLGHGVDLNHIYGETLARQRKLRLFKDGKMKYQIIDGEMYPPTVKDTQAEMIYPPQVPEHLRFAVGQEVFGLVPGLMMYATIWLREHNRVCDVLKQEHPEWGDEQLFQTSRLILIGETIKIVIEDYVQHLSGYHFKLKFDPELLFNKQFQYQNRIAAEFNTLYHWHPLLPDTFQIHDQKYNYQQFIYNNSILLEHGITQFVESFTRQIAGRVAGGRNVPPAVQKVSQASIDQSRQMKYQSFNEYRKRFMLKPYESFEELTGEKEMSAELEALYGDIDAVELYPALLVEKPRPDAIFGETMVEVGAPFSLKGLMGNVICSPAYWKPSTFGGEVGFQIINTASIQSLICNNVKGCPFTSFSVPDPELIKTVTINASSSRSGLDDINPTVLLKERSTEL
Experimental: as §1

hTRPV1 = hTRPV1 (Homo sapiens, UniProt Q8NER1); conditions: 10 μM, previous study (Ref 24); cited from earlier work
[1] = system: VEGF-induced angiogenesis; experiment: Matrigel plug angiogenesis assay; format: in vivo; conditions: co-addition in Matrigel with 100 ng VEGF, C57BL/6 mice
Experimental: FIG. 7A is a simplified scheme of the animal experiment: Matrigel containing VEGF (angiogenesis inducer) and 22-HDoHE or vehicle were injected into C57BL/6 mice, after 4-7 days of treatment, the Matrigel plugs were dissected and subjected to angiogenesis analysis.
Angiogenesis, the process of formation of new blood vessels from pre-existing vessels, has been established to be critical for multiple human diseases including cancer. Vascular endothelial growth factor (VEGF) is the most important angiogenesis inducer.

[2] = system: human umbilical vein endothelial cells (HUVECs); experiment: VEGF-induced endothelial cell migration (Boyden chamber); format: cell-based; conditions: dose range of 1-3 μM, 10 ng/mL VEGF, 6 hours
Experimental: FIG. 8 is a series of photographs showing 22-HDoHE inhibition of VEGF-induced endothelial cell migration in HUVEC cells. The cell migration assay was conducted using a standard Boyden chamber assay with 10 ng/mL VEGF as chemoattractant, and the assay time was 6 hours.
It was tested whether 22-HDoHE has direct anti-angiogenic actions in primary endothelial cells, using a VEGF-induced endothelial cell migration in human umbilical vein endothelial cells (HUVECs).

B16F10 melanoma = B16F10 melanoma primary tumor growth model; format: in vivo; conditions: 0.5 mg/kg/day by mini-pumps, 2-wk treatment, C57BL/6 mice
Experimental: FIG. 9 is a photograph and a bar graph showing systematic treatment of 0.5 mg/kg/day 22-HDoHE inhibited ˜50% of B16F10 melanoma growth in C57BL/6 male mice. B16F10 melanoma cells (200,000 cells per mouse) were sub-Q injected into C57BL/6 mice to induce primary tumor growth of melanoma, then the mice were treated with 22-HDoHE using mini-pumps at a dose of 0.5 mg/kg/day. After 2-wk treatment, the mice were sacrificed to dissect the tumors for analysis.
Angiogenesis has been well established to play an essential role in cancer, through providing nutrients and oxygen to the tumors tissues to promote tumor progression. The effect of 22HDoHE on primary tumor growth in mice was studied using a highly aggressive B16F10 melanoma model in C57BL/6 mice.

[3] = system: human dermal lymphatic endothelial cells (HMVEC-dLy); experiment: VEGF-C-induced tube formation; format: cell-based; conditions: dose-dependent manner, FIG. 10
Experimental: The effect of 22-HDoHE on lymphangiogenesis was evaluated using a vascular endothelial growth factor-C (VEGF-C)-induced tube formation in human dermal lymphatic endothelial cells (HMVEC-dLy).

HMVEC-dLy = experiment: complete medium-induced HMVEC-dLy migration, Boyden chamber assay; format: cell-based, human; conditions: FIG. 11

T1 sequence (Q704Y3 whole entry): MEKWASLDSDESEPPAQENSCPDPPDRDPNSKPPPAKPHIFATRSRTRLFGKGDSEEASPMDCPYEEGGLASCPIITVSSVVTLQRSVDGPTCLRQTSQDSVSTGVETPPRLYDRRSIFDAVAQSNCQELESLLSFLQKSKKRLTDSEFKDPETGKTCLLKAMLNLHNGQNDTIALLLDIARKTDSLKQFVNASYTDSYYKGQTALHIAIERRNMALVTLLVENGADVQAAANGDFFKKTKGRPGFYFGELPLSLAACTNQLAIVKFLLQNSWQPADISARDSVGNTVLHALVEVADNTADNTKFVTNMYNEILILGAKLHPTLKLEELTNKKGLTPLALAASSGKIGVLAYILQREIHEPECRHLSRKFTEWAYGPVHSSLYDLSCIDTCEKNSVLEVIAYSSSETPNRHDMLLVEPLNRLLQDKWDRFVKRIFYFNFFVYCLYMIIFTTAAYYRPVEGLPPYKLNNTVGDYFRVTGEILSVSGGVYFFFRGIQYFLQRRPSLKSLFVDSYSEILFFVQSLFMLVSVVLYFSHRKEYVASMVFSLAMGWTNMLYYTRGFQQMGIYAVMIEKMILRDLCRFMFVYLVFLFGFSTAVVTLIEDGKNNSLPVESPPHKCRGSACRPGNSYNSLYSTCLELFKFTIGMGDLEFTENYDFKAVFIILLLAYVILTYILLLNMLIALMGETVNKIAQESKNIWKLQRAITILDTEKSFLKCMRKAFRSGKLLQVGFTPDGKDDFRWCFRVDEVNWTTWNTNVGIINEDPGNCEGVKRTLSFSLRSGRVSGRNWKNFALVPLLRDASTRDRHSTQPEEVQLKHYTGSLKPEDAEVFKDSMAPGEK
Chain of hTRPV1 (Q8NER1 whole entry): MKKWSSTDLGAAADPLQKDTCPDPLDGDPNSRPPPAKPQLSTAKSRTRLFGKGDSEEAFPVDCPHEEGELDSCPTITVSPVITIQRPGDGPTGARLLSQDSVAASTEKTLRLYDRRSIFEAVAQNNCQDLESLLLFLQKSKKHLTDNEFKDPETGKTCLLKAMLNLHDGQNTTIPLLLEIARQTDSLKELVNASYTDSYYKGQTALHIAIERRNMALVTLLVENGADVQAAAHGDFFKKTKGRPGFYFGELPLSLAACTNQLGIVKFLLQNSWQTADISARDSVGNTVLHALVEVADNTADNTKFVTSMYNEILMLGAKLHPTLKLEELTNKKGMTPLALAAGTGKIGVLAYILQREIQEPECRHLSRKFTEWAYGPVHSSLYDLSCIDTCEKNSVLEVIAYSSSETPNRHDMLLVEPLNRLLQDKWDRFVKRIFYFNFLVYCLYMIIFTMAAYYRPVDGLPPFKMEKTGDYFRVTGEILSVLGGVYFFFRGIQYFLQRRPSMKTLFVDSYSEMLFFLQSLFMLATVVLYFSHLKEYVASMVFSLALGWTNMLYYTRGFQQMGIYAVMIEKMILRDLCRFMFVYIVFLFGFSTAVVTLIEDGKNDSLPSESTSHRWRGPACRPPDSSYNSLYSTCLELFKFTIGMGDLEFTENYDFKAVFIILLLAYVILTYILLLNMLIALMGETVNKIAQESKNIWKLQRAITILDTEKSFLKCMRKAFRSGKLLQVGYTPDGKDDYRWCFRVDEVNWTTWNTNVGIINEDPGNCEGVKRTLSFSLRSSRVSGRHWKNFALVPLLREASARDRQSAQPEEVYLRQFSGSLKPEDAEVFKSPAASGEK

SMILES: COC(=O)CCC/C=C\C/C=C\C/C=C\C/C=C\C/C=C\CCO
nociceptive (withdrawal) thresholds, von Frey (naïve rats): neither 20-HEPE nor 22-HDoHE induced a similar decrease in thresholds

SMILES: COC(=O)CCC/C=C\C/C=C\C/C=C\C/C=C\CCCCCO
nociceptive (withdrawal) thresholds, von Frey (naïve rats): decreased nociceptive thresholds acutely

SMILES: COC(=O)CC/C=C\C/C=C\C/C=C\C/C=C\C/C=C\C/C=C\CCO [22-HDoHE]
nociceptive (withdrawal) thresholds, von Frey (naïve rats): neither 20-HEPE nor 22-HDoHE induced a similar decrease in thresholds

Continued, in another order:

concentration that produced significant Ca2+ influx (mTRPV1): 10 µM
TRPV1 channel activation (mTRPV1): did not activate TRPV1 channels
inhibition at 100 µM (ovine COX-1): 37.1%
inhibition at 100 µM (human COX-2): 0%
COX-2 activity changes (human COX-2; FIG. 5): No COX-2 activity changes
SMILES: O=C(O)CCC/C=C\C/C=C\C/C=C\C/C=C\C/C=C\CCO [20-HEPE, (5Z,8Z,11Z,14Z,17Z)-20-Hydroxyicosa-5,8,11,14,17-pentaenoic Acid]

Ca2+ response (mTRPV1; at the concentrations examined, FIG. 4): marginal Ca^2+ response
inhibition at 100 µM (ovine COX-1): 27.5%
inhibition at 100 µM (human COX-2): 0%
COX-2 activity changes (human COX-2; FIG. 5): No COX-2 activity changes
SMILES: O=C(O)CCC/C=C\C/C=C\C/C=C\C/C=C\CCCCCO [20-HETE, (5Z,8Z,11Z,14Z)-20-Hydroxyicosa-5,8,11,14-tetraenoic Acid]
mTRPV1 activation (mTRPV1; at or below concentration of 10 uM): does not appear to be an mTRPV1 activator
hTRPV1 activation (hTRPV1): activates hTRPV1

concentration that produced significant Ca2+ influx (mTRPV1): ~3 µM
TRPV1 channel activation (mTRPV1): did not activate TRPV1 channels
inhibition at 100 µM (ovine COX-1): 38.1%
inhibition at 100 µM (human COX-2): 1%
COX-2 activity changes (human COX-2; FIG. 5): No COX-2 activity changes
SMILES: O=C(O)CC/C=C\C/C=C\C/C=C\C/C=C\C/C=C\C/C=C\CCO [22-HDoHE, (4Z,7Z,10Z,13Z,16Z,19Z)-22-Hydroxydocosa-4,7,10,13,16,19-hexaenoic Acid]
VEGF-induced angiogenesis in Matrigel plugs [1]: almost abolished VEGF-induced angiogenesis
VEGF-induced HUVECs migration [2]: significantly inhibited
reduction of B16F10 tumor growth (B16F10 melanoma): ~50%
VEGF-C-induced tube formation in HMVEC-dLy cells [3]: significantly inhibited
complete medium-induced HMVEC-dLy migration (HMVEC-dLy): significantly inhibit

COX inhibitory activity (% inhibition), COX-2 (human COX-2; FIG. 5): Less than 0%
SMILES: CC/C=C\C/C=C\C/C=C\C/C=C\C/C=C\CCCC(=O)O [EPA, eicosapentaenoic acid, reference compound]
